US11510924B2, “Deuterated pharmaceutical compositions and methods of treating cardiovascular diseases” (priority 2017, dated 2022)

Legend:
[1] = system: volunteer subjects; assay: Heart rate effect of API combinations in volunteer subjects (Examples 1-3); conditions: added API in combination with aminophylline and clenbuterol; small group of volunteer subjects
Procedure: To test this hypothesis, an experiment was conducted, where a combination of aminophylline and clenbuterol was administered to a small group of volunteer subjects. […] For each subject in this example, an electrocardiogram (ECG) was used to monitor heart rate and A-V conduction abnormalities.
To further improve the effect of the aminophylline and clenbuterol combination on the heart rate, various combinations with active pharmaceutical ingredients were investigated. Without being bound by theory, the hypothesis in this experiment was to utilize a combination of APIs with similar mechanism of action or with the same side effect (a secondary therapeutical effects) on heart as aminophylline and clenbuterol. Oryzanol, nicotinamide, or anisodamine in combination with aminophylline and clenbuterol was tested on a small group of volunteer subjects.
Nifedipine (a calcium channel blocker) was then selected and tested.
A combination of betahistine with aminophylline, clenbuterol, and nifedipine was then prepared and tested on a small group of healthy volunteer subjects.

[2] = system: patient; assay: Clinical observation of heart rate in patients treated for other indications; conditions: vertigo patient, after administering betahistine
[3] = system: bradycardia patients; assay: API combinations tested on bradycardia patients (Examples 1-3); type: in vivo, human; conditions: observed on some patients
Procedure: During the testing of the 4-API combination on bradycardia patients, a few adverse side effects were observed on some patients. […] Therefore, a further study was conducted to determine how to avoid or reduce such side effects. […] To confirm this finding, clenbuterol was replaced by albuterol in the 4-API combination, which has a similar secondary therapeutic effect on heart rate. […] Daily electrocardiograms were used to monitor the bradycardia patients. […] With this improvement, the effectiveness of the treatment on bradycardia patients was retained while the undesired side effects were minimized or eliminated.

Molecule	effect on heart rate compared with aminophylline and clenbuterol combination (Example 1) [1]	also measured
CN1[C@H]2C[C@H](OC(=O)[C@H](CO)c3ccccc3)C[C@@H]1[C@@H](O)C2 [anisodamine]	no further improvement	–
CNCCc1ccccn1 [betahistine]	–	effect on heart rate [2]: noticeably increased
CC(C)(C)NCC(O)c1cc(Cl)c(N)c(Cl)c1 (centres unmarked) [clenbuterol]	–	adverse side effects [3]: these side effects were related to clenbuterol
NC(=O)c1cccnc1 [nicotinamide]	no further improvement	–
Oryzanol	no further improvement	–
